From patent publication US20020076693A1, “Novel cell surface receptor for HIV retroviruses, therapeutic and diagnostic uses” (priority 1997, published 2002)
“Also recorded” adds a separate entry of the source.

Legend:
[1] = test system: HIV-1 Ada-M; test: HIV-1 Ada-M entry into HeLa P4-C5 cells (β-galactosidase); assay type: cell-based; conditions: HeLa P4-C5, β-galactosidase at 48 hours
Method: HeLa cells (P4-C5) were treated (incubation at 37° C., 30 min) with AZT (5 μM), (α-CD4 mAb CBT4 (5 μg/ml) before infection with the different HIV isolates in order to obtain the background β-galactosidase activity compared to untreated cells (Control). During the same time, the different HIV isolates were treated (incubation at room temperature, 15 min) with 1, 5, and 10 μg/ml of heparin before addition to untreated cells. The b-galactosidase activity was assayed at 48 hours post-infection as a measure of HIV entry (3 +L7).

[2] = test system: cell surface component (CEM and C8166 clones); test: Competition for cell-surface binding of 8-MAP; design: species or system human; conditions: FACS competition
[3] = test system: HIV-1 Ada-M; test: Infection of PBMC by HIV-1 Ada-M (p24); assay type: cell-based; conditions: p24 at 6 days post-infection
Source text: Virus production was monitored by the concentration of p24 in the culture medium at 6 days post-infection (3 +L0).

[4] = biological target: P30/PHAPI (Homo sapiens, UniProt P39687); test: Saturation of binding sites of P30/PHAPI
P30/PHAPI, sequence (P39687 whole entry): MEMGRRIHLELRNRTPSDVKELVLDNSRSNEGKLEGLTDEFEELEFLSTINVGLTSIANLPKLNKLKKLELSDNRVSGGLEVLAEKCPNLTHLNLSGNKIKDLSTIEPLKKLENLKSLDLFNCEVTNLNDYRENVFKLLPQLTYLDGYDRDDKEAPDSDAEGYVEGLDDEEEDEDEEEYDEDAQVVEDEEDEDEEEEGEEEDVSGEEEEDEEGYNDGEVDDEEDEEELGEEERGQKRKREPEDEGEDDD

[5] = test system: SIVmac; test: SIVmac entry into HeLa cells (β-galactosidase); assay type: cell-based, SIV; conditions: β-galactosidase at 48 hours
[6] = test system: VSV/HIV; assay type: cell-based
[7] = test system: HIV-1 pseudotyped Mo-MLV virus; test: Infection of CEM cells by HIV-1 pseudotyped Mo-MLV virus (p24); conditions: p24 at 48 hours p.i., AZT 5 μM, TASP 5 μM
Method: CEM cells (2×10^5) were infected with the HIV-1 pseudoryped Mo-MLV virus (Experimental procedure) at 95 ng of p24/ml, in the absence (histogram Control) or presence of different additions (as indicated). The infection was monitored by the production of p24, which was measured in the culture supernatant at 48 hours p.i. The mean±SD of duplicate samples is given. Treatment of cells with the different antibodies was as in FIG. 6 +L. For a control of infection, cells were pretreated with 5 μM AZT before infection.
Hela cells were cotransfected by electroporation with plasmids pNL4-3 defective in env gene (Borman et al., 1995) and pE4070A expressing amphotrope envelope glycoproteins of Mo-MLV (Battini et al., 1996). Electroporation (Schwartz et al., 1996) was performed at 200 V, 960 μF, using a 4 mm wide cuvettes in a BIO-Rad Gene Pulser. The pseudotyped virus was recovered from the culture supernatant after 48 hours of culturing.

[8] = test system: MOLT4 cells; test: FACS binding of FITC-labeled TASP after protease treatment of cells; design: species or system human
Method: The cells were then washed twice with FACS buffer and fixed in 1% formaldehyde in FACS buffer. […] The fluorescence intensity was monitored by FACS analysis using Lysis II Software in FIGS. 3/4 and Tables 1/2, or Cell Quest™ Software (Beckton Dickinson and Apple Computer) in FIG. 5 +L.
Protease treatment of CEM and MOLT cells was essentially as described previously (Borrow et al., 1992) with slight modifications. Briefly, cells were washed in PBS and in RPMI-1640 medium containing 1 mM EDTA before treatment with trypsin (Sigma; 2.5 mg/ml at 20° C. for 5 min), proteinase K (Bohringer Mannhein GmbH, Germany; 0.2 mg/ml at 37° C. for 30 min), or pronase E (Sigma, 0.1 mg/ml at 37° C. for 45 min). The reactions were stopped by 10 fold dilutions in RPMI-1640 containing 10% fetal calf serum. Cells were then washed in PBS and in FACS buffer, and processed for FACS analysis.
The expression of CD4 and CD26 in control cells (not treated with different proteases) was considered as 100%. Consequently the % positive cells after protease treatment were estimated by comparison with the untreated cells.

[9] = test system: HIV-1 ELI, Ba-L, SF162, UGO29A, and Retrovir resistant isolate; test: Infection of PBMC by different HIV-1 isolates (p24 in culture medium); assay type: cell-based; conditions: p24 at 6 days post-infection, range over the isolates, read-out: IC50 values, virus production in PBMC
Source text: Virus production was monitored by the concentration of p24 in the culture medium at 6 days post-infection (3 +L0). The HIV-1 isolates were:
Virus production was monitored by the concentration of p24 in the culture medium at 7 days post-infection.

[10] = biological target: P95/nucleolin (Homo sapiens, UniProt P19338); test: Saturation of binding sites of P95/nucleolin
P95/nucleolin, sequence (P19338 whole entry): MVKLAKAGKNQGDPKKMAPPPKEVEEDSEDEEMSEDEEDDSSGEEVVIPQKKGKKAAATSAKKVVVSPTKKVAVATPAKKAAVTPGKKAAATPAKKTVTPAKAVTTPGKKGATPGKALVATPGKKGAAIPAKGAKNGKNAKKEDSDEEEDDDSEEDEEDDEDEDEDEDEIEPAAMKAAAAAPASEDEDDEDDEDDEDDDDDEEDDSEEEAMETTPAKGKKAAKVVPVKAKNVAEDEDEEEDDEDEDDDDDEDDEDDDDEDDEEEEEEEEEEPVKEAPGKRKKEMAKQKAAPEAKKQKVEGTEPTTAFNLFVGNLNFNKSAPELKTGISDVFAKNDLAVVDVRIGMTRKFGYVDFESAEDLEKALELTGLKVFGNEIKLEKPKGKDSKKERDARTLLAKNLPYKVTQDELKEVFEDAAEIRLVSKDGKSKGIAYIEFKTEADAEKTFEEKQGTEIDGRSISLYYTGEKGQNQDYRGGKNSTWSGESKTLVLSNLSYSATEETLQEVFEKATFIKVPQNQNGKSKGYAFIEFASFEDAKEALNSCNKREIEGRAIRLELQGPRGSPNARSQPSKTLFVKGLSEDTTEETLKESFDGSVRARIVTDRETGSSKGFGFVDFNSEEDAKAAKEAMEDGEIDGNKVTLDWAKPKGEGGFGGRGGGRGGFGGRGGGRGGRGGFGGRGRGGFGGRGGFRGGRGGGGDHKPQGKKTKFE

[11] = biological target: cell-surface P95 (Homo sapiens, UniProt P19338); test: Recovery of cell-surface P95 complexed to biotin-labeled 5[Kψ(CH2N)PR]-TASP, competition by unlabeled constructs; conditions: 50 μM unlabeled, 5 μM biotin-labeled 5[Kψ(CH2N)PR]-TASP
cell-surface P95, sequence (P19338 whole entry): as above
Method: Cells were then washed extensively before preparation of cell extracts. The complexes formed between the biotin-labeled TASP constructs and any cell-surface protein were then recovered by purification using avidin-agarose (“Materials and Methods”). […] Lane 1 “Extract” represents the ligand blot analysis of crude CEM cell extracts; material corresponding to 10^6 cells.
Cells were then washed in FACS buffer (2×15 ml) and nucleus-free cell extracts were prepared using buffer E (150 ml). Such extracts were first diluted in PBS containing 1 mM EDTA (600 μl) before the addition of 100 μl avidin-agarose (ImmunoPure Immobilized Avidin from Pierce Chemical Company, U.S.A.) to capture the biotin-labeled TASP complexed to its cell surface ligand(s). These suspensions were incubated at 4° C. for 2 hr, and the avidin-agarose bound proteins were washed batchwise with PBS containing 1 mM EDTA (5×5 ml). Finally, the avidin-agarose pellet was resuspended in 100 ml of 2-fold concentrated electrophoresis sample buffer and heated at 95° C. for 5 min.

[12] = test system: HIV-1 JRCSF; test: HIV entry into HeLa P4-C5 cells (β-galactosidase), HIV-1 JRCSF; assay type: cell-based; conditions: HeLa P4-C5, HIV-1 JRCSF; read-out: IC50, inhibition of HIV entry
[13] = test system: HIV-1 Lai; test: HIV entry into HeLa P4 / P4-C5 cells (β-galactosidase activity), HIV-1 Lai; assay type: cell-based
[14] = Stability of TASP constructs in serum (residual activity to bind the cell-surface ligand); assay type: in vitro ADME
[15] = test system: HIV-1 Bal; test: Infection of human monocyte-derived macrophages by HIV-1 (p24); assay type: cell-based; conditions: HIV-1 BaL (TASP also Ada); p24 in supernatant
Method: Macrophages are infected with BaL or Ada HIV-1 viruses, in the presence of 2 μM, 1 μM or 0.1 μM of 5[Kψ (CH2N)PR]-TASP. Cells are preincubated during 30 min at 4° C. in the presence of 5[Kψ (CH2N)PR]-TASP before adding the virus. Every 3 days interval, the whole culture supernatant is collected and is replaced by RPMI 1640 culture medium supplemented with 20% fetal calf serum (FCS), 1% antibiotics, 1% glutamine, in addition to 5[Kψ (CH2N)PR]-TASP that is kept present in the culture medium until day 14 after in vitro infection. Virus production is quantitated by titration of p24 protein in the culture supernatant at different times (days) after in vitro infection. Each value represented in the graphs represents the mean of two test samples.
Macrophages are infected by the BaL VIH-1 virus in the presence of 100 μg/ml of anti-P95, anti-P40 and anti-P30 antibody. Cells are preincubated during 30 min at 4° C. in the presence of each kind of antibody before adding the virus. The antibodies are kept present in the culture medium during the whole infection period of time. […]
Cells are preincubated during 30 min at 4° C. in the presence of the different molecules either alone or in association before adding the virus. […] Virus production is quantitated by titration of p24 protein in the culture supernatant at different times (days) after in vitro infection. […]

[16] = test system: HIV-1 Bal; test: HIV entry into HeLa P4-C5 cells (β-galactosidase), HIV-1 Ba-L; assay type: cell-based; conditions: HeLa P4-C5, HIV-1 Bal; read-out: IC50, inhibition of HIV entry

5[Kψ(CH2N)PR]-TASP
effect on HIV-1 Ada-M entry [1]: enhances | concentration sufficient to block the binding of 10 μM of 8-MAP [2]: 1 µM | effect on HIV-1 Ada-M infection of PBMC [3]: no effect | concentration for 100% saturation of the binding sites [4]: 8 µM | effect on SIVmac entry [5]: only a slight effect; also recorded: no significant effect | effect on VSV-HIV pseudotyped virus entry and replication [6]: had no effect | effect on infection by HIV-1 pseudotyped Mo-MLV virus [7]: no significant effect | Cell-surface expression (% positive cells), TASP-Ligand ([8]; after Pronase E treatment): 8% | Cell-surface expression (% positive cells), TASP-Ligand ([8]; after Proteinase K treatment): 15% | Cell-surface expression (% positive cells), TASP-Ligand ([8]; after Trypsin treatment): 92% | IC50 [9]: 50 to 500 nM | concentration for 100% saturation of the binding sites [10]: 2 µM | isolation of cell-surface P95 abolished by excess unlabeled construct [11]: completely abolished | IC50 [12]: 300 nM | inhibition of viral entry monitored by β-galactosidase activity in HeLa/CD4^+ cells ([13]; 5-10 μM): at least 90% | inhibition of HIV-1 LAI infection in HeLa cells ([13]; 37° C. in culture medium, 0.1-1 μM): more than 90% | activity retained after 18 hours of incubation in serum [14]: more than 80% | inactivated after 18 hours of incubation in sera [14]: less than 20% | effect on infection of human macrophages by HIV-1 [15]: inhibits, in a dose-dependent manner | IC50 [16]: 300 nM
